Assay results: PMC3549755, “A comparison of the ability of rilpivirine (TMC278) and selected analogues to inhibit clinically relevant HIV-1 reverse transcriptase mutants” (Retrovirology, 2012)
Read-outs that look alike come from different tables or passages of the source.

What was measured:
[1] = system: viral vector with L100I mutant HIV-1 RT; assay: single-round infectivity assay, luciferase reporter, L100I RT vector; assay type: cell-based; conditions: Human immunodeficiency virus 1; broader panel, SD in parentheses
Text: (§1) We examined the effects of rilpivirine and the analogues on HIV-1 replication using a previously described assay and report the concentrations at which luciferase reporter activity was reduced by half relative to uninhibited controls (EC50) with standard deviations in parentheses. In the assay, viral vectors that replicate using WT HIV reverse transcriptase or one of several mutants (L100I, K103N, V106A, E138K, Y181C, Y188L, H221Y and the double mutant K103N/Y181C) were used to infect cells in a single round assay. These mutants were chosen either because they are known NNRTI resistance mutations (L100I, K103N, Y181C, and the K103N/Y181C double mutant), they were selected in patients in rilpivirine clinical trials (E138K and H221Y), or they are positioned to make significant Van der Waals contacts with rilpivirine (V106A and Y188L). All compounds were initially screened against a panel that included at least one RT mutant from all three groups (WT, K103N, E138K, Y181C and Y188L). The cytotoxicity of the compounds was also determined to establish the therapeutic index of each of the compounds.
(§2) Procedures for virion production and cell-based assay have been reported. Briefly, all cell cultures were maintained in Dulbecco’s modified Eagle’s medium (Invitrogen, Carlsbad, CA) with 5% (v/v) fetal bovine serum, 5% newborn calf serum, penicillin (50 units/mL) and streptomycin (50 μg/mL) (Quality Biological, Gaithersburg, MD). […]. Transfected cells were incubated at 37°C for 8 hrs, washed twice with PBS, fresh media was added and the cells were returned to the incubator for 48 hrs. The pNLNgoMIVR^+ΔEnv.LUC plasmid encodes the HIV-1 genome with an Env deletion and either WT HIV-1 RT, or one of the following mutants: L100I, K103N, V106A, E138K, Y181C, Y188L, H221Y, or K103N/Y181C. Supernatants from each plate were clarified by low-speed centrifugation (3,000xg for 20 min), then treated with 200 U DNase I (Roche Applied Science, Mannheim, Germany) at room temperature for 3 hours. Viral supernatants were stored at −20°C until used.
(§3) One day prior to infection, 100 μL of human osteosarcoma (HOS) cells were added to each well of a 96-well plate at a density of 4x10^4 cells/mL. Plates were incubated overnight at 37°C. On the day of infection, 10X drug stocks were prepared by serial dilution in media from an initial 10 mM stock solution in DMSO. Cells in the 96-well plate were pre-treated by the addition of 22 μL of the appropriate drug stock and returned to the incubator for 3 hours. Thawed virus stocks were diluted 1:2 in media, then 100 μL of virus was added to the pre-treated cells, bringing the final drug concentrations to 0.1 nM to 100 nM, with DMSO-treated cells (no drug) serving as a reference. In addition, 12 wells of cells treated with media and no virus served as negative controls. Plates were returned to the incubator for an additional 42 hours, at which time the luciferase activity was determined using Steady-Lite Plus kits (PerkinElmer, Waltham, MA). Background luciferase activity, as measured for the negative controls, was subtracted from the activities measured for each infected well. Drug-free, DMSO-treated wells were normalized to 100% infectivity. Infectivity at each drug concentration was determined as a percentage of these drug-free infections. Drug concentration versus percent infectivity was plotted for each RT-inhibitor combination, and the data were fit to a four-parameter sigmoidal curve using KaleidaGraph 4.0 (Synergy Software, Reading, PA). The inflection point of each curve is reported as the IC50. All values are the mean of triplicate infections.

[2] = cytotoxicity assay (ATP-Lite cell viability); assay type: cell-based, human; conditions: human, HOS cells, 48 hours, SD in parentheses
Experimental: (§4) One day prior to treatment, HOS cells were prepared in 96-well plates as described for the infectivity assays, except that 12 wells per plate were treated with cell-free media to serve as negative controls. The following day, serial dilutions of drug stocks were prepared in media from 10 mM stocks in DMSO. Each well received 11 μL of the appropriate drug concentration or DMSO-treated, drug-free media. Final drug concentrations ranged from 0.5 μM to 300 μM. The drug-free wells served as references. Plates were then incubated at 37°C for 48 hours. Cell viability was determined using luciferase reporter ATP-Lite kits (PerkinElmer). As described for the infectivity assays, drug-free reference wells were normalized to 100%, and viabilities at different drug concentrations were determined as a percentage of these references. Data were plotted and analyzed in the same manner as the IC50 data, with the inflection points of the curves reported as CC50.

[3] = system: HOS cells; assay: cytotoxicity assay (ATP-Lite cell viability); assay type: cell-based, human; conditions: for Therapeutic Index (T.I.): ratio of CC50/EC50 (WT); for CC50: HOS cells, 48 hours, SD in parentheses
Experimental: as §4

[4] = system: viral vector with H221Y mutant HIV-1 RT; assay: single-round infectivity assay, luciferase reporter, H221Y RT vector; assay type: cell-based; conditions: Human immunodeficiency virus 1; broader panel, SD in parentheses
Text: as §1, §2, §3

[5] = system: viral vector with K103N/Y181C double mutant HIV-1 RT; assay: single-round infectivity assay, luciferase reporter, K103N/Y181C RT vector; assay type: cell-based; conditions: for EC50: Human immunodeficiency virus 1, broader panel, SD in parentheses; for fold resistance / loss of potency against K103N/Y181C double mutant: relative to WT
Text: as §1, §2, §3

[6] = system: viral vectors that replicate using WT HIV reverse transcriptase; assay: single-round infectivity assay, luciferase reporter, vector with WT RT; assay type: cell-based, HIV-1; conditions: SD in parentheses
Text: as §1, §2, §3

[7] = system: viral vector with K103N mutant HIV-1 RT; assay: single-round infectivity assay, luciferase reporter, K103N RT vector; assay type: cell-based; conditions: Human immunodeficiency virus 1; HOS cells, reduction of luciferase reporter activity, SD in parentheses
Text: as §1, §2, §3

[8] = system: viral vector with Y181C mutant HIV-1 RT; assay: single-round infectivity assay, luciferase reporter, Y181C RT vector; assay type: cell-based; conditions: Human immunodeficiency virus 1; HOS cells, reduction of luciferase reporter activity, SD in parentheses
Text: as §1, §2, §3

[9] = system: viral vector with Y188L mutant HIV-1 RT; assay: single-round infectivity assay, luciferase reporter, Y188L RT vector; assay type: cell-based; conditions: Human immunodeficiency virus 1; HOS cells, reduction of luciferase reporter activity, SD in parentheses
Text: as §1, §2, §3

[10] = system: viral vector with E138K mutant HIV-1 RT; assay: single-round infectivity assay, luciferase reporter, E138K RT vector; assay type: cell-based; conditions: for EC50: Human immunodeficiency virus 1, HOS cells, reduction of luciferase reporter activity, SD in parentheses; for loss of potency against E138K: compared with rilpivirine (1)
Text: as §1, §2, §3

[11] = system: viral vector with V106A mutant HIV-1 RT; assay: single-round infectivity assay, luciferase reporter, V106A RT vector; assay type: cell-based; conditions: Human immunodeficiency virus 1; broader panel, SD in parentheses
Text: as §1, §2, §3

[12] = Human immunodeficiency virus 1, broader panel table, read-out: EC50 WT (Table S1)

Compound | EC50 [1] | CC50 at 48 h [2] | Therapeutic Index (T.I.) [3] | EC50 [4] | EC50 [5] | fold resistance / loss of potency against K103N/Y181C double mutant [5] | EC50 ([6]; HOS cells, reduction of luciferase reporter activity, read-out: EC50 WT) | EC50 ([6]; Human immunodeficiency virus 1, HOS, HOS cells, reduction of luciferase reporter activity, read-out: EC50 WT) | EC50 [7] | EC50 [8] | EC50 [9] | EC50 [10] | EC50 [11] | EC50 [6, 12] | CC50 [3] | loss of potency against E138K [10] | EC50 fold greater than that of 7 against K103N/Y181C [5]
Cc1cc(/C=C/C#N)cc(C)c1Nc1ccnc(Nc2ccc(C#N)cc2)n1 [Analogue 1, rilpivirine] | < 0.1 nM | 10000 ± 600 nM | 2.5x10^4 | 0.4 nM | 3.1 nM | ~ 8 fold | 0.2 nM | 0.4 ± 0.02 nM | 0.2 nM | 1.3 nM | 2.3 ± 0.2 nM | 0.3 nM | 0.1 nM |  |  |  | 
Cc1cc(/C=C/C#N)cc(C)c1Nc1nc(Nc2ccc(C#N)cc2)ncc1[N+](=O)[O-] [Analogue 6] | < 0.1 nM | 24000 nM | 1.2x10^5 | 0.4 nM | 27 nM |  |  |  | 0.2 nM | 2.1 nM | 6.8 ± 0.5 nM | 1.4 nM | 0.1 nM | 0.2 nM |  |  | 
Cc1cc(/C=C/C#N)cc(C)c1Nc1nc(Nc2ccc(C#N)cc2)ncc1N [Analogue 7] | 0.1 nM | 50000 nM | 2.5x10^5 | 0.9 nM | 2.2 nM |  |  |  | 0.3 nM | 1.1 nM | 2.3 ± 0.1 nM | 1.3 nM | 0.1 nM | 0.2 nM | > 38000 nM | four- to fourteen-fold | 
Cc1cc(/C=C/C#N)cc(C)c1Nc1ncc(N)c(Nc2ccc(C#N)cc2)n1 [Analogue 9] | 0.5 nM | 19000 nM | 2.7x10^4 | 2.8 nM | 47 nM | ~ 67 fold |  |  | 0.7 nM | 4.6 nM | 18 nM | 2.6 nM | 0.9 nM | 0.7 nM |  |  | ~ 21 fold
Cc1cc(/C=C/C#N)cc(C)c1Nc1nc(Nc2ccc(C#N)cc2)c2nc[nH]c2n1 [Analogue 13] | 0.1 nM | 15000 nM | 1.7x10^4 | 1.3 nM | 2.9 nM |  |  |  | 0.4 nM | 1.4 nM | 2 nM | 4.2 ± 0.3 nM | 0.5 nM | 0.9 nM |  | four- to fourteen-fold | 
Cc1cc(/C=C/C#N)cc(C)c1Nc1nc(Nc2ccc3ncsc3c2)c2nc[nH]c2n1 [Analogue 20] | 0.2 nM | 2000 nM | 1.0x10^4 | 1.1 nM | 60 nM |  |  |  | 0.1 nM | 1 nM | 19 nM | 0.8 nM | 2.1 nM | 0.2 nM |  |  | 
Cc1cc(/C=C/C#N)cc(C)c1Nc1nc(Nc2ccc3scnc3c2)c2nc[nH]c2n1 [Analogue 21] | 0.6 nM | 38000 nM | 3.8x10^5 | 0.6 nM | > 100 nM | > 1000 fold |  |  | 0.6 nM | 1 nM | 4.4 nM | 1.5 nM | 4.6 nM | 0.1 nM | > 38000 nM |  | 
Cc1cc(/C=C/C#N)cc(C)c1Nc1ncc2ncn(-c3ccc(C#N)cc3)c2n1 [Analogue 26] | 1.6 nM | 21000 nM | 4.7x10^3 | 17 nM | > 100 nM |  |  |  | 6.5 nM | 26 nM | 91 nM | 25 nM | 6.5 nM | 4.5 nM |  |  | 
Cc1cc(/C=C/C#N)cc(C)c1-n1cnc2cnc(Nc3ccc(C#N)cc3)nc21 [Analogue 27] | 0.2 nM | 42000 nM | 2.1x10^5 | 0.4 nM | 72 nM |  |  |  | 0.4 nM | 1.5 nM | 9.6 ± 2.2 nM | 0.7 nM | 0.2 nM | 0.2 nM | > 38000 nM |  | 
